Earlier results, collected in publication PMC12690571, “Green Synthesis of a Hyaluronan-Based Multimeric A9 Peptide System: Polysaccharide-A9 Conjugate with Enhanced HER2 Receptor Binding Affinity and Potential Biomedical Applications as an Active Material” (Biomacromolecules, 2025).

Tested on: HER2 receptor
Parameters: method as in not printed at the place
Details: A9 peptide; introduction, earlier work, ref not given

binding affinity to HER2 receptor (in words): binds with high affinity
Substance: H-QDVNTAVAW-NH2 [A9]
